Each structure is given as a SMILES string.

For test [1], the system named is Cyperus spp., Echinochloa spp., Digitaria spp., Sagitaria spp. and Scirpus spp. In words: Action on harmful plants in rice (paddy rice conditions, visual scoring). Type of test: in vivo, typical rice weeds (gramineous and broad-leaved). To be noted: applied into the dammed water, visual scoring about three weeks after application. A digest of the protocol:
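Under paddy conditions with 2-3 cm dammed water, transplanted and sown rice plus weeds were treated at three-leaf stage (E. crus-galli at 1.5 leaves). Pots stayed in greenhouse under optimum growth conditions for the test period, with visual assessment of damage.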

Test [2] concerns Chenopodium spp., Papaver spp., Polygonum spp., Veronica spp. or Viola spp. Nature of the test: Post-emergence effect on weeds (greenhouse pot test, visual scoring). Type of test: in vivo, monocotyledonous and dicotyledonous weeds. The conditions noted are these: treated at three-leaf stage; visual scoring after about 3 to 4 weeks; application rate of 0.5 kg and less of active substance per hectare.

Consider `CCCCC#Cc1cc(C(C)Nc2nc(N)nc(C(C)F)n2)ccc1F` (centres unmarked) [Product P22.688], for which the “herbicidal activity against harmful plants which are typical for rice crops” value (“herbicidal activity … for rice crops” below) in test [1] is “very good herbicidal activity”. In addition, in test [2], the “herbicidal activity post-emergence against harmful plants” value (from here on “herbicidal activity post-emergence”) was “very good herbicidal activity”.

`CC(F)C#Cc1cc(C(C)Nc2nc(N)nc(C(C)F)n2)ccc1F` (centres unmarked) [Product P22.764]: in test [1], the “herbicidal activity … for rice crops” value is listed as “very good herbicidal activity”. In addition, the “herbicidal activity post-emergence” value in test [2] was “very good herbicidal activity”.

As to `CC(O)C#Cc1cc(C(C)Nc2nc(N)nc(C(C)F)n2)ccc1F` (centres unmarked) [Product P22.840], the “herbicidal activity … for rice crops” value in test [1] is reported as “very good herbicidal activity”. In addition, the “herbicidal activity post-emergence” value in test [2] was “very good herbicidal activity”.

Turning to `CC(F)c1nc(N)nc(NC(C)c2ccc(F)c(C3CC3)c2)n1` (centres unmarked) [Product P22.916], in test [1], the “herbicidal activity … for rice crops” value is “very good herbicidal activity”. Besides, the “herbicidal activity post-emergence” value in test [2] was “very good herbicidal activity”.

For `CC(F)c1nc(N)nc(NC(C)c2cccc(C(F)=C(F)F)c2)n1` (centres unmarked) [Product P22.1567], the “herbicidal activity … for rice crops” value in test [1] is reported as “very good herbicidal activity”. In addition, the “herbicidal activity post-emergence” value in test [2] is listed as “very good herbicidal activity”.

Consider `CC(F)c1nc(N)nc(NC(C)c2ccc(C(F)=C(F)F)cc2)n1` (centres unmarked) [Product P22.1568], for which the “herbicidal activity … for rice crops” value in test [1] is reported as “very good herbicidal activity”. The “herbicidal activity post-emergence” value in test [2] was “very good herbicidal activity”.

Consider `C#Cc1cccc(C(C)Nc2nc(N)nc(C(C)F)n2)c1` (centres unmarked) [Product P22.1579], for which, in test [1], the “herbicidal activity … for rice crops” value is given as “very good herbicidal activity”. Besides, the “herbicidal activity post-emergence” value in test [2] is “very good herbicidal activity”.

For the compound `C#Cc1ccc(C(C)Nc2nc(N)nc(C(C)F)n2)cc1` (centres unmarked) [Product P22.1580], in test [1], the “herbicidal activity … for rice crops” value is on record as “very good herbicidal activity”. In addition, in test [2], the “herbicidal activity post-emergence” value is listed as “very good herbicidal activity”.

`CC#Cc1cccc(C(C)Nc2nc(N)nc(C(C)F)n2)c1` (centres unmarked) [Product P22.1582]: the “herbicidal activity … for rice crops” value in test [1] is “very good herbicidal activity”. The “herbicidal activity post-emergence” value in test [2] was “very good herbicidal activity”.

For the compound `CC#Cc1ccc(C(C)Nc2nc(N)nc(C(C)F)n2)cc1` (centres unmarked) [Product P22.1583], in test [1], the “herbicidal activity … for rice crops” value was “very good herbicidal activity”. In test [2], the “herbicidal activity post-emergence” value is on record as “very good herbicidal activity”.

For `CCCCC#Cc1ccc(C(C)Nc2nc(N)nc(C(C)F)n2)cc1` (centres unmarked) [Product P22.1595], in test [1], the “herbicidal activity … for rice crops” value is given as “very good herbicidal activity”. The “herbicidal activity post-emergence” value in test [2] was “very good herbicidal activity”.

On to `CC(F)C#Cc1cccc(C(C)Nc2nc(N)nc(C(C)F)n2)c1` (centres unmarked) [Product P22.1597], for which the “herbicidal activity … for rice crops” value in test [1] is “very good herbicidal activity”. In addition, the “herbicidal activity post-emergence” value in test [2] is “very good herbicidal activity”.

Regarding `CC(F)C#Cc1ccc(C(C)Nc2nc(N)nc(C(C)F)n2)cc1` (centres unmarked) [Product P22.1598], the “herbicidal activity … for rice crops” value in test [1] was “very good herbicidal activity”. Also, the “herbicidal activity post-emergence” value in test [2] is recorded as “very good herbicidal activity”.

As for `CC(O)C#Cc1cccc(C(C)Nc2nc(N)nc(C(C)F)n2)c1` (centres unmarked) [Product P22.1600], the “herbicidal activity … for rice crops” value in test [1] is recorded as “very good herbicidal activity”. In addition, in test [2], the “herbicidal activity post-emergence” value is on record as “very good herbicidal activity”.

Consider `CC(O)C#Cc1ccc(C(C)Nc2nc(N)nc(C(C)F)n2)cc1` (centres unmarked) [Product P22.1601], for which the “herbicidal activity … for rice crops” value in test [1] is recorded as “very good herbicidal activity”. Moreover, the “herbicidal activity post-emergence” value in test [2] was “very good herbicidal activity”.

In the case of `CC(F)c1nc(N)nc(NC(C)c2cccc(C3CC3)c2)n1` (centres unmarked) [Product P22.1603], the “herbicidal activity … for rice crops” value in test [1] is listed as “very good herbicidal activity”. Also, the “herbicidal activity post-emergence” value in test [2] is “very good herbicidal activity”.

For `CC(F)c1nc(N)nc(NC(C)c2ccc(C3CC3)cc2)n1` (centres unmarked) [Product P22.1604], the “herbicidal activity … for rice crops” value in test [1] is “very good herbicidal activity”. Also, in test [2], the “herbicidal activity post-emergence” value was “very good herbicidal activity”.

On to `C#Cc1ccc(C(C)Nc2nc(N)nc(C(C)F)n2)cc1F` (centres unmarked) [Product P22.1620], for which, in test [1], the “herbicidal activity … for rice crops” value is reported as “very good herbicidal activity”. Moreover, the “herbicidal activity post-emergence” value in test [2] was “very good herbicidal activity”.

As for `CC(F)c1nc(N)nc(NC(c2cccc(C(F)=C(F)F)c2)C2CC2)n1` (centres unmarked) [Product P24.1567], the “herbicidal activity … for rice crops” value in test [1] is on record as “very good herbicidal activity”. In addition, the “herbicidal activity post-emergence” value in test [2] was “very good herbicidal activity”.

For `CC(F)c1nc(N)nc(NC(c2ccc(C(F)=C(F)F)cc2)C2CC2)n1` (centres unmarked) [Product P24.1568], in test [1], the “herbicidal activity … for rice crops” value is given as “very good herbicidal activity”. For the same compound, in test [2], the “herbicidal activity post-emergence” value is given as “very good herbicidal activity”.

For the compound `C#Cc1cccc(C(Nc2nc(N)nc(C(C)F)n2)C2CC2)c1` (centres unmarked) [Product P24.1579], the “herbicidal activity … for rice crops” value in test [1] was “very good herbicidal activity”. Moreover, the “herbicidal activity post-emergence” value in test [2] is given as “very good herbicidal activity”.

Regarding `C#Cc1ccc(C(Nc2nc(N)nc(C(C)F)n2)C2CC2)cc1` (centres unmarked) [Product P24.1580], the “herbicidal activity … for rice crops” value in test [1] is on record as “very good herbicidal activity”. In addition, the “herbicidal activity post-emergence” value in test [2] is reported as “very good herbicidal activity”.

On to `CC#Cc1cccc(C(Nc2nc(N)nc(C(C)F)n2)C2CC2)c1` (centres unmarked) [Product P24.1582], for which the “herbicidal activity … for rice crops” value in test [1] was “very good herbicidal activity”. Further, the “herbicidal activity post-emergence” value in test [2] is “very good herbicidal activity”.

For `CC#Cc1ccc(C(Nc2nc(N)nc(C(C)F)n2)C2CC2)cc1` (centres unmarked) [Product P24.1583], the “herbicidal activity … for rice crops” value in test [1] is given as “very good herbicidal activity”. Moreover, the “herbicidal activity post-emergence” value in test [2] is “very good herbicidal activity”.

In the case of `CC(F)c1nc(N)nc(NC(c2cccc(C3CC3)c2)C2CC2)n1` (centres unmarked) [Product P24.1603], in test [1], the “herbicidal activity … for rice crops” value is recorded as “very good herbicidal activity”. In addition, the “herbicidal activity post-emergence” value in test [2] is on record as “very good herbicidal activity”.

As for `CC(F)c1nc(N)nc(NC(c2ccc(C3CC3)cc2)C2CC2)n1` (centres unmarked) [Product P24.1604], in test [1], the “herbicidal activity … for rice crops” value is on record as “very good herbicidal activity”. Besides, the “herbicidal activity post-emergence” value in test [2] was “very good herbicidal activity”.

`CCC(F)c1nc(N)nc(NCc2ccc(F)c(C(F)=C(F)F)c2)n1` (centres unmarked) [Product P26.5]: the “herbicidal activity … for rice crops” value in test [1] is “very good herbicidal activity”. Further, the “herbicidal activity post-emergence” value in test [2] is on record as “very good herbicidal activity”.

Turning to `CCC(F)c1nc(N)nc(NCc2cc(F)c(C(F)=C(F)F)c(F)c2)n1` (centres unmarked) [Product P26.49], the “herbicidal activity … for rice crops” value in test [1] is “very good herbicidal activity”. Further, the “herbicidal activity post-emergence” value in test [2] is “very good herbicidal activity”.

In the case of `C#Cc1cc(CNc2nc(N)nc(C(F)CC)n2)ccc1F` (centres unmarked) [Product P26.309], the “herbicidal activity … for rice crops” value in test [1] is “very good herbicidal activity”. The “herbicidal activity post-emergence” value in test [2] is reported as “very good herbicidal activity”.

For the compound `C#Cc1c(F)cc(CNc2nc(N)nc(C(F)CC)n2)cc1F` (centres unmarked) [Product P26.352], the “herbicidal activity … for rice crops” value in test [1] is “very good herbicidal activity”. Besides, in test [2], the “herbicidal activity post-emergence” value is given as “very good herbicidal activity”.

In the case of `CC#Cc1cc(CNc2nc(N)nc(C(F)CC)n2)ccc1F` (centres unmarked) [Product P26.384], the “herbicidal activity … for rice crops” value in test [1] was “very good herbicidal activity”. The “herbicidal activity post-emergence” value in test [2] is “very good herbicidal activity”.

With `CC#Cc1c(F)cc(CNc2nc(N)nc(C(F)CC)n2)cc1F` (centres unmarked) [Product P26.428], the “herbicidal activity … for rice crops” value in test [1] was “very good herbicidal activity”. Besides, the “herbicidal activity post-emergence” value in test [2] was “very good herbicidal activity”.

For `CCC(F)c1nc(N)nc(NCc2ccc(F)c(C3CC3)c2)n1` (centres unmarked) [Product P26.916], the “herbicidal activity … for rice crops” value in test [1] was “very good herbicidal activity”. Further, the “herbicidal activity post-emergence” value in test [2] is listed as “very good herbicidal activity”.

On to `CCC(F)c1nc(N)nc(NCc2cc(F)c(C3CC3)c(F)c2)n1` (centres unmarked) [Product P26.960], for which, in test [1], the “herbicidal activity … for rice crops” value is “very good herbicidal activity”. Also, the “herbicidal activity post-emergence” value in test [2] is reported as “very good herbicidal activity”.

Take `CCC(F)c1nc(N)nc(NCc2cccc(C(F)=C(F)F)c2)n1` (centres unmarked) [Product P26.1567]: the “herbicidal activity … for rice crops” value in test [1] is listed as “very good herbicidal activity”. In addition, in test [2], the “herbicidal activity post-emergence” value is recorded as “very good herbicidal activity”.

For the compound `CCC(F)c1nc(N)nc(NCc2ccc(C(F)=C(F)F)cc2)n1` (centres unmarked) [Product P26.1568], the “herbicidal activity … for rice crops” value in test [1] is on record as “very good herbicidal activity”. In addition, in test [2], the “herbicidal activity post-emergence” value was “very good herbicidal activity”.

In the case of `C#Cc1cccc(CNc2nc(N)nc(C(F)CC)n2)c1` (centres unmarked) [Product P26.1579], the “herbicidal activity … for rice crops” value in test [1] is reported as “very good herbicidal activity”. Moreover, the “herbicidal activity post-emergence” value in test [2] is given as “very good herbicidal activity”.

The values above are taken from patent publication US20030224942A1, “Alkylamino-1,3,5-triazines, processes for their preparation and their use as herbicides and plant growth regulators” (priority 2001, published 2003).
